Laboratory results: the CheMixHub viscosity set

Assay: xn = mol fraction of the nth substance listed

OC[C@@H](O)[C@H](O)[C@@H](O)CO + O
viscosity [mPa·s], 101.3 kPa
Details | x1 = 0.00359 | x1 = 0.007154 | x1 = 0.0107 | x1 = 0.01421 | x1 = 0.0177 | x1 = 0.02631 | x1 = 0.03478 | x1 = 0.0431 | x1 = 0.05127
293.15 K | 1.06 | 1.14 | – | 1.32 | – | 1.72 | 2.09 | 2.42 | 2.85
303.15 K | 0.85 | 0.91 | 0.99 | 1.04 | – | 1.33 | 1.53 | 1.8 | 2.1
313.15 K | 0.69 | 0.78 | 0.79 | 0.83 | 0.9 | 1.02 | 1.19 | 1.38 | 1.6
323.15 K | 0.58 | 0.62 | – | 0.69 | 0.75 | 0.85 | 0.96 | 1.1 | 1.25

c1ccc2ncccc2c1 + Oc1ccccc1Cl
Details | viscosity [mPa·s]
293.15 K, 101 kPa, x2 = 0.1686 | 6.62
293.15 K, 101 kPa, x2 = 0.3263 | 13
293.15 K, 101 kPa, x2 = 0.4251 | 23.62
293.15 K, 101 kPa, x2 = 0.4893 | 33.45
293.15 K, 101 kPa, x2 = 0.5043 | 35.1
293.15 K, 101 kPa, x2 = 0.534 | 36.9
293.15 K, 101 kPa, x2 = 0.5506 | 37.25
293.15 K, 101 kPa, x2 = 0.5803 | 36.62
293.15 K, 101 kPa, x2 = 0.6353 | 31.62
293.15 K, 101 kPa, x2 = 0.7227 | 21.85
293.15 K, 101 kPa, x2 = 0.8671 | 9.95
298 K, 101.3 kPa, x1 = 0.0761 | 4.871
298 K, 101.3 kPa, x1 = 0.1549 | 7.882
298 K, 101.3 kPa, x1 = 0.2343 | 11.68
298 K, 101.3 kPa, x1 = 0.3348 | 19.63
298 K, 101.3 kPa, x1 = 0.4286 | 26.3
298 K, 101.3 kPa, x1 = 0.5274 | 21.74
298 K, 101.3 kPa, x1 = 0.6364 | 12.94
298 K, 101.3 kPa, x1 = 0.7447 | 8.205
298 K, 101.3 kPa, x1 = 0.8898 | 4.628
303 K, 101.3 kPa, x1 = 0.0761 | 4.063
303 K, 101.3 kPa, x1 = 0.1549 | 6.073
303 K, 101.3 kPa, x1 = 0.2343 | 9.042
303 K, 101.3 kPa, x1 = 0.3348 | 14.39
303 K, 101.3 kPa, x1 = 0.4286 | 18.2
303 K, 101.3 kPa, x1 = 0.5274 | 16.12
303 K, 101.3 kPa, x1 = 0.6364 | 10.29
303 K, 101.3 kPa, x1 = 0.7447 | 6.433
303 K, 101.3 kPa, x1 = 0.8898 | 4.058
303.15 K, 101 kPa, x2 = 0.1686 | 4.87
303.15 K, 101 kPa, x2 = 0.3263 | 9.11
303.15 K, 101 kPa, x2 = 0.4251 | 14.4
303.15 K, 101 kPa, x2 = 0.4893 | 17.92
303.15 K, 101 kPa, x2 = 0.5043 | 18.4
303.15 K, 101 kPa, x2 = 0.534 | 19
303.15 K, 101 kPa, x2 = 0.5506 | 19.01
303.15 K, 101 kPa, x2 = 0.5803 | 18.88
303.15 K, 101 kPa, x2 = 0.6353 | 17.42
303.15 K, 101 kPa, x2 = 0.7227 | 12.82
303.15 K, 101 kPa, x2 = 0.8671 | 6.41
308 K, 101.3 kPa, x1 = 0.0761 | 3.469
308 K, 101.3 kPa, x1 = 0.1549 | 5.006
308 K, 101.3 kPa, x1 = 0.2343 | 7.403
308 K, 101.3 kPa, x1 = 0.3348 | 11.49
308 K, 101.3 kPa, x1 = 0.4286 | 14.09
308 K, 101.3 kPa, x1 = 0.5274 | 12.37
308 K, 101.3 kPa, x1 = 0.6364 | 8.401
308 K, 101.3 kPa, x1 = 0.7447 | 5.506
308 K, 101.3 kPa, x1 = 0.8898 | 3.581
313 K, 101.3 kPa, x1 = 0.0761 | 2.998
313 K, 101.3 kPa, x1 = 0.1549 | 4.205
313 K, 101.3 kPa, x1 = 0.2343 | 6.048
313 K, 101.3 kPa, x1 = 0.3348 | 9.267
313 K, 101.3 kPa, x1 = 0.4286 | 11.03
313 K, 101.3 kPa, x1 = 0.5274 | 9.852
313 K, 101.3 kPa, x1 = 0.6364 | 7.017
313 K, 101.3 kPa, x1 = 0.7447 | 4.762
313 K, 101.3 kPa, x1 = 0.8898 | 3.171
313.15 K, 101 kPa, x2 = 0.1686 | 3.71
313.15 K, 101 kPa, x2 = 0.3263 | 6.35
313.15 K, 101 kPa, x2 = 0.4251 | 8.96
313.15 K, 101 kPa, x2 = 0.4893 | 10.47
313.15 K, 101 kPa, x2 = 0.5043 | 10.73
313.15 K, 101 kPa, x2 = 0.534 | 10.95
313.15 K, 101 kPa, x2 = 0.5506 | 10.98
313.15 K, 101 kPa, x2 = 0.5803 | 10.89
313.15 K, 101 kPa, x2 = 0.6353 | 10
313.15 K, 101 kPa, x2 = 0.7227 | 7.64
313.15 K, 101 kPa, x2 = 0.8671 | 4.33
318 K, 101.3 kPa, x1 = 0.0761 | 2.614
318 K, 101.3 kPa, x1 = 0.1549 | 3.59
318 K, 101.3 kPa, x1 = 0.2343 | 4.979
318 K, 101.3 kPa, x1 = 0.3348 | 7.306
318 K, 101.3 kPa, x1 = 0.4286 | 8.786
318 K, 101.3 kPa, x1 = 0.5274 | 7.927
318 K, 101.3 kPa, x1 = 0.6364 | 5.922
318 K, 101.3 kPa, x1 = 0.7447 | 4.17
318 K, 101.3 kPa, x1 = 0.8898 | 2.824
